The text below walks through data of patent publication US6395725B1, “Analgesic methods using synthetic catalysts for the dismutation of superoxide radicals” (priority 1997, dated 2002).

Experiment [1] relates to tolerance to morphine. Description: Morphine tolerance in mice, hot plate test. It is filed as in vivo. The procedure: Mice were treated twice a day with either saline (naive) or morphine (s.c., 10 mg/kg) for a period of 4 days to induce tolerance. For comparison, a dose of 10 mg, or less than 0.15 mg/kg every 4 to 10 hours, is a morphine dosage routinely prescribed for the 70 kg. human adult with severe pain. On day 5, all mice received a subcutaneous challenge dose of 3 mg./kg morphine and the level of analgesia was measured 30 minutes later. […] Tolerance to morphine was eliminated in mice that were treated with the superoxide dismutase catalyst SC-72325 administered intraperitoneally.

Experiment [2] concerns morphine tolerance. The conditions noted are these: literature background; cited from earlier work.
Experiment [3] concerns temporomandibular joint dysfunction. The conditions noted are these: intra-articular injections, patients with TMJ dysfunction; cited from earlier work.

With `CN1CC[C@]23c4c5ccc(O)c4O[C@H]2[C@@H](O)C=C[C@H]3[C@H]1C5` [morphine], the “analgesic effect from morphine on day 5” value in experiment [1] (mice treated with morphine s.c. 10 mg/kg twice a day for 4 days, challenge 3 mg/kg, 30 minutes, versus naive mice) is on record as “decreased analgesic effect”. Further, in experiment [1] (naive or non-tolerant mice, s.c. challenge dose 3 mg/kg, hot plate test), the analgesia is reported as 90%.

Turning to `NC(=NCCC[C@H](N)C(=O)O)N[N+](=O)[O-]` [NG-nitroarginine], in experiment [2], the morphine tolerance entry is “prevent and reverse morphine tolerance”.

In the case of “human Cu/Zn superoxide dismutase: naturally occurring enzyme used intra-articularly as a nonsteroidal anti-inflammatory”, the “Positive response in terms of mandibular movement and pain” value in experiment [3] is 83 % of patients.

As for `C[C@]12N[C@H](Cc3ccccc31)c1ccccc12` [MK-801], the morphine tolerance entry in experiment [2] is given as “prevent morphine tolerance”.
